Experimental data: article PMC6199744, “Development of Chemical Proteomics for the Folateome and Analysis of the Kinetoplastid Folateome” (ACS Infectious Diseases, 2018)
Read-outs that look alike come from different tables or passages of the source.

How the values were obtained:
Assay type in all cases: binding
[1] = target: T1, HeLa cell extract proteins (Homo sapiens, UniProt P32320)
T1 construct: endogenous in cells; host or cells: HeLa cell extract

[2] = target: T2, HeLa cell extract proteins (Homo sapiens, UniProt P16278)
T2 construct: endogenous in cells; host or cells: HeLa cell extract
T2 sequence (P16278 29-677): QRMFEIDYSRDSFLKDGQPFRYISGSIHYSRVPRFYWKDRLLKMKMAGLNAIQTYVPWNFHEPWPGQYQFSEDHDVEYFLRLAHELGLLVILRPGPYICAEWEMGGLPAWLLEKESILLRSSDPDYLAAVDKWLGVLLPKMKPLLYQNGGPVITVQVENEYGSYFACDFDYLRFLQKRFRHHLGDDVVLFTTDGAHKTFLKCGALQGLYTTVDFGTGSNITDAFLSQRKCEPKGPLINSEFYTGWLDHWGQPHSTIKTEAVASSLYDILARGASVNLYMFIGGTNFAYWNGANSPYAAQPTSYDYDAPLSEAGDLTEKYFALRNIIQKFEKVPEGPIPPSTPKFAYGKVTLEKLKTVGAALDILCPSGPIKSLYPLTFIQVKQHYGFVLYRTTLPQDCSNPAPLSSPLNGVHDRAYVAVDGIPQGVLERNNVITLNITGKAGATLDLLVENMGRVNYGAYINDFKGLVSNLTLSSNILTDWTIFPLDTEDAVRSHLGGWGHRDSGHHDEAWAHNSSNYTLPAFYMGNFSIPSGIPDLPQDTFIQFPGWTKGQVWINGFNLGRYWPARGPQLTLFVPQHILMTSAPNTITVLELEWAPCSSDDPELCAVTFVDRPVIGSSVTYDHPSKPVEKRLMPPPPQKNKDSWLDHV

[3] = target: T3, HeLa cell extract proteins (Homo sapiens, UniProt P16615)
T3 construct: endogenous in cells; host or cells: HeLa cell extract
T3 sequence (P16615 whole entry): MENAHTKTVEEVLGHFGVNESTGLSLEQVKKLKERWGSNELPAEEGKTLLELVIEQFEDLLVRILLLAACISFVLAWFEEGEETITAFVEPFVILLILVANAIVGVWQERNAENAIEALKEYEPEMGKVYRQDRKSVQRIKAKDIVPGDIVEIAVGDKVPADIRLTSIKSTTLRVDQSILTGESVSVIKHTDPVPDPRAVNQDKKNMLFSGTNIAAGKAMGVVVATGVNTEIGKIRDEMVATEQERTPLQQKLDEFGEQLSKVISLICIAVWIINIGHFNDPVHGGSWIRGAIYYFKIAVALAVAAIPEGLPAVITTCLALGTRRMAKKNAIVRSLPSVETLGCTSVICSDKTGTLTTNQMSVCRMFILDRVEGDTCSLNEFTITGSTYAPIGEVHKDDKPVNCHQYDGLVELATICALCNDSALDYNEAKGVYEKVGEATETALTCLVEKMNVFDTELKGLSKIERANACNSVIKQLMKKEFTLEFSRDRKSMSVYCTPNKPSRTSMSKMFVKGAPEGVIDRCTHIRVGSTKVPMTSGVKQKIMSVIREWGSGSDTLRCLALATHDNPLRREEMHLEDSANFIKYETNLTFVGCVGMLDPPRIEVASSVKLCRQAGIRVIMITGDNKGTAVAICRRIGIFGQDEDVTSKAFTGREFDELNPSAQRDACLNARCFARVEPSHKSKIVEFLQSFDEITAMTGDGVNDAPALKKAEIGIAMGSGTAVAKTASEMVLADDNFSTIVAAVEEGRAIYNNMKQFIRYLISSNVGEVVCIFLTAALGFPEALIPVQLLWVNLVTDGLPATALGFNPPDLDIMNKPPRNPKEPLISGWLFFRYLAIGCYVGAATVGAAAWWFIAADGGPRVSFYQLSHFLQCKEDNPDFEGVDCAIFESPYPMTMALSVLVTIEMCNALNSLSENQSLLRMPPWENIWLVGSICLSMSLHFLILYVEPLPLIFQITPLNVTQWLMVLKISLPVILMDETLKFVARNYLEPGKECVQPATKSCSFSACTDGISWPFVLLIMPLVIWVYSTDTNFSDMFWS

[4] = target: T4, HeLa cell extract proteins (Homo sapiens, UniProt Q14CZ7)
T4 construct: endogenous in cells; host or cells: HeLa cell extract
T4 sequence (Q14CZ7 1-662): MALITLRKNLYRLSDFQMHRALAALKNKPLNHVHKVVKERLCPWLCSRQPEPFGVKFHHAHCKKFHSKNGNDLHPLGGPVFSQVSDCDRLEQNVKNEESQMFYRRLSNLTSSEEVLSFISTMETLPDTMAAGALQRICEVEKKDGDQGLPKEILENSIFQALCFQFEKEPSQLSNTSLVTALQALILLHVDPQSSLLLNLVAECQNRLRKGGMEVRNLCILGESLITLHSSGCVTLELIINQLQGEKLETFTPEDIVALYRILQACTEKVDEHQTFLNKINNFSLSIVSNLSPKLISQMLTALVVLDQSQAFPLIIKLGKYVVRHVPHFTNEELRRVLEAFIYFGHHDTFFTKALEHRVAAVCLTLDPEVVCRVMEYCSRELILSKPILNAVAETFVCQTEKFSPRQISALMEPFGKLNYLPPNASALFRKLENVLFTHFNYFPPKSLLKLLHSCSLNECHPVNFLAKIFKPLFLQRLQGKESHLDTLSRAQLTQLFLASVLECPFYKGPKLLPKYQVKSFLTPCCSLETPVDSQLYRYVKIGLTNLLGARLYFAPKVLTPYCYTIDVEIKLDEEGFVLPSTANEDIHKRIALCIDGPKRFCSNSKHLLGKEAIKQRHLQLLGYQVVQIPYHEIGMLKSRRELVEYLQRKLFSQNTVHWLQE

[5] = target: T5, HeLa cell extract proteins (Homo sapiens, UniProt O00410)
T5 construct: endogenous in cells; host or cells: HeLa cell extract
T5 sequence (O00410 1-1097): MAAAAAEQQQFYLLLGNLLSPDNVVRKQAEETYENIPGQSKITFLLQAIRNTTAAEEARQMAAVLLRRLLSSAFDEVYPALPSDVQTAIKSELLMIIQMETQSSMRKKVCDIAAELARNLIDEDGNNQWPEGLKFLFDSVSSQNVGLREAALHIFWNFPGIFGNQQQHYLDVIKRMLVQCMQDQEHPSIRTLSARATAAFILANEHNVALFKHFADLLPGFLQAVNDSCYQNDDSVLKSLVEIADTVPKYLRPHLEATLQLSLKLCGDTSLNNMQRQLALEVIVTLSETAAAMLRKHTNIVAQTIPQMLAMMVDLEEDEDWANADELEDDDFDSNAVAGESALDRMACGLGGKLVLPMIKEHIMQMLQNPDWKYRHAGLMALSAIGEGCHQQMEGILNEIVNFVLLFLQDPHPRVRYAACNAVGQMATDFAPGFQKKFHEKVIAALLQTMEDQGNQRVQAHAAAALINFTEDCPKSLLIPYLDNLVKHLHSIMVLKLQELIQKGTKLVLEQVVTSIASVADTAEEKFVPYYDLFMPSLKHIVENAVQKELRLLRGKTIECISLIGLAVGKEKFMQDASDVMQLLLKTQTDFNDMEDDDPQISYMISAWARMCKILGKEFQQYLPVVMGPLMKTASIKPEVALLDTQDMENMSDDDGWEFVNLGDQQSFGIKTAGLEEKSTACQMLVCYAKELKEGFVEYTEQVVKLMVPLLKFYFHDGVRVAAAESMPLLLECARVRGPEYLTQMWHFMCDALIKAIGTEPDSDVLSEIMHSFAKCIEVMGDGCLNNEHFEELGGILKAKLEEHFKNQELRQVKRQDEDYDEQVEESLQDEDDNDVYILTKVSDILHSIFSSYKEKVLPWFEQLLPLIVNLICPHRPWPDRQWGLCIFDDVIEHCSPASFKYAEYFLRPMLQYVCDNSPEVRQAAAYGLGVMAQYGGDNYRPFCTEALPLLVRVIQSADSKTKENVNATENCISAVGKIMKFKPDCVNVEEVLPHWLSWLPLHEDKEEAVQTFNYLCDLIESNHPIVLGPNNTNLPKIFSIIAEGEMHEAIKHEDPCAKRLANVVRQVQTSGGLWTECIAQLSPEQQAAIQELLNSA

[6] = target: T6, HeLa cell extract proteins (Homo sapiens, UniProt Q9H583)
T6 construct: endogenous in cells; host or cells: HeLa cell extract
T6 sequence (Q9H583 whole entry): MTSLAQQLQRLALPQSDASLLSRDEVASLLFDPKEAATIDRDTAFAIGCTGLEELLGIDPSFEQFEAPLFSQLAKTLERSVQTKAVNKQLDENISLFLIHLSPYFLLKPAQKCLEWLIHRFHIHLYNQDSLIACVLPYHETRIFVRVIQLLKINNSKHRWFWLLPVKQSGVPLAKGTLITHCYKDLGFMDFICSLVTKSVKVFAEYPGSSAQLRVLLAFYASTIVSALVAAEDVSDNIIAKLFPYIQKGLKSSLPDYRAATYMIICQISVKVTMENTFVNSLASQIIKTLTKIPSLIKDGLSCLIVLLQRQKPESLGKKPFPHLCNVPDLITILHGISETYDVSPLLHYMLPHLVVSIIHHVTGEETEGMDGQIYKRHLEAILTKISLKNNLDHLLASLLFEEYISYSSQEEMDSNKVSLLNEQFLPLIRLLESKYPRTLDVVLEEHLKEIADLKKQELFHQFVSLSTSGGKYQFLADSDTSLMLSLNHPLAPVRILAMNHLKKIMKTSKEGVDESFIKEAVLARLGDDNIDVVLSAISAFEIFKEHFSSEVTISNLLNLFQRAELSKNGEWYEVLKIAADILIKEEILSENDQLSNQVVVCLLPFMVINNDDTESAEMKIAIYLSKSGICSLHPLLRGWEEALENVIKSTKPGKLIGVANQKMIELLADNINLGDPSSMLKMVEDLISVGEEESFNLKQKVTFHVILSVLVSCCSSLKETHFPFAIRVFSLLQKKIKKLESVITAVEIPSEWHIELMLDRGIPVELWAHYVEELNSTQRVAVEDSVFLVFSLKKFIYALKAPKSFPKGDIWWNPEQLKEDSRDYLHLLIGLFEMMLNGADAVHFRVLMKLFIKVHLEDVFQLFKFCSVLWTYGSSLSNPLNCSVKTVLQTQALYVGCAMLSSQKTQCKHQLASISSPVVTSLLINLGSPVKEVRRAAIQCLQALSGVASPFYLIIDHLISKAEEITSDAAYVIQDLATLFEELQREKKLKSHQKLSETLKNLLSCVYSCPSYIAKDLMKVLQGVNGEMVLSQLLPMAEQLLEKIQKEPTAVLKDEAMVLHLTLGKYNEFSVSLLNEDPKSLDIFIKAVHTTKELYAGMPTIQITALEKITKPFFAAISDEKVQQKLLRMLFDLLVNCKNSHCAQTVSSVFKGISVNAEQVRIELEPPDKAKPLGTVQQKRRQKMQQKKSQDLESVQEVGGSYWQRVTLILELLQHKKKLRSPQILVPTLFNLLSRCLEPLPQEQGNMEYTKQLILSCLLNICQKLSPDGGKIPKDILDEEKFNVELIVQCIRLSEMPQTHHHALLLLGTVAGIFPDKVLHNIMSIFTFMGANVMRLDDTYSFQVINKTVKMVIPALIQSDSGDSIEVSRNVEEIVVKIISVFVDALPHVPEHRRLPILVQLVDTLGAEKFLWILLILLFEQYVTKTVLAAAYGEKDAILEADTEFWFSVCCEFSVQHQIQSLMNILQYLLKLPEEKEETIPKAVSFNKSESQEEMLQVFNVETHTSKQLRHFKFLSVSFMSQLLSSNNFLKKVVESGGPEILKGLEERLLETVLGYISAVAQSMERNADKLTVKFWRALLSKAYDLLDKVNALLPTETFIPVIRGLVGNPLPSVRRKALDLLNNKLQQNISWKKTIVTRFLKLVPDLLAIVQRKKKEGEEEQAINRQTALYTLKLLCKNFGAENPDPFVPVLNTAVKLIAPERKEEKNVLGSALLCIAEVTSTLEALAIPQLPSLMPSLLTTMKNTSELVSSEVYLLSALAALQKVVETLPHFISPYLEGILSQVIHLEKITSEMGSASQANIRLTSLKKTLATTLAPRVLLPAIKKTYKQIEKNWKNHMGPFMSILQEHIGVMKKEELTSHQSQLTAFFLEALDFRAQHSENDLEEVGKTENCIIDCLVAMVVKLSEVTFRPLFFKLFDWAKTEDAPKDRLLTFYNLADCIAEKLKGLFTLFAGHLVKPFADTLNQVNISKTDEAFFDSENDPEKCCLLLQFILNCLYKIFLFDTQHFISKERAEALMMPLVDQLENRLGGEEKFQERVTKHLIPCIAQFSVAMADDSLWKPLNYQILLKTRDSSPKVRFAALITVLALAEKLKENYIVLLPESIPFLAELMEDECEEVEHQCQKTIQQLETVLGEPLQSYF

[7] = target: T7, HeLa cell extract proteins (Homo sapiens, UniProt P27707)
T7 construct: endogenous in cells; host or cells: HeLa cell extract
T7 sequence (P27707 whole entry): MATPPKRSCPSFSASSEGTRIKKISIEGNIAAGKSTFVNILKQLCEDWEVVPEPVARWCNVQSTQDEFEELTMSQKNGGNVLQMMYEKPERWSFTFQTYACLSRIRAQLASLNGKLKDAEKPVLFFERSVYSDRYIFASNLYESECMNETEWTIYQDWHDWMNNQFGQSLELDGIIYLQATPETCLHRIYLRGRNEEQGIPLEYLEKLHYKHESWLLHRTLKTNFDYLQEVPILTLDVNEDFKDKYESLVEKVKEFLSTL

T1 sequence (P32320 whole entry): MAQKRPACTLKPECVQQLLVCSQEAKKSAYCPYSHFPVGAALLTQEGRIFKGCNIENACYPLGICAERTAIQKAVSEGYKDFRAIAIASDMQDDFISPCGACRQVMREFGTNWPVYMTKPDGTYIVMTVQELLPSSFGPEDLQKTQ

Structure (SMILES)	fold changes relative to vehicle control ([1]; HeLa, captured protein CDA)	fold changes relative to vehicle control ([2]; HeLa, captured protein GLB1)	fold changes relative to vehicle control ([3]; HeLa, protein ATP2A2)	fold changes relative to vehicle control ([4]; HeLa, protein FASTKD3)	fold changes relative to vehicle control ([5]; HeLa, protein IPO5)	fold changes relative to vehicle control ([6]; HeLa, protein HEATR1)	fold changes relative to vehicle control ([7]; HeLa, protein DCK (DEO[…]))	fold changes relative to vehicle control [1]	fold changes relative to vehicle control [2]	fold changes relative to vehicle control [3]	fold changes relative to vehicle control [4]	fold changes relative to vehicle control [5]	fold changes relative to vehicle control [6]	fold changes relative to vehicle control [7]	fold changes relative to vehicle control ([1]; captured protein CDA, HeLa)	fold changes relative to vehicle control ([2]; captured protein GLB1, HeLa)	fold changes relative to vehicle control ([4]; captured protein FASTKD3, HeLa)	fold changes relative to vehicle control ([5]; protein IPO5, HeLa)	fold changes relative to vehicle control ([7]; protein DCK, HeLa)	fold changes relative to vehicle control ([7]; HeLa, protein DCK (DEOXYCYTIDINE KINASE))
Nc1nc2c(c(=O)[nH]1)N(C=O)C(CNc1ccc(C(=O)N[C@@H](CCC(=O)O)C(=O)O)cc1)CN2 (stereo partly shown) [LEU, leucovorin]	1.07	1.01	1	1.02	0.93	0.94	1.12	–	–	–	–	–	–	–	–	–	–	–	–	–
Nc1nc2[nH]cc(CCc3ccc(C(=O)N[C@@H](CCC(=O)O)C(=O)O)cc3)c2c(=O)[nH]1 [PTX, pemetrexed]	–	–	–	–	–	–	–	1.06	0.99	1.03	0.86	0.91	0.98	1	–	–	–	–	–	–
CCCCCCOc1ccc(Cc2cnc(N)nc2N)cc1 [compound 1]	–	–	1.05	–	–	1.14	–	–	–	–	–	–	–	–	0.91	0.96	0.93	0.99	0.98	–
CCCCCCOc1cccc(Cc2cnc(N)nc2N)c1 [compound 2]	–	–	1.12	–	–	1.2	–	–	–	–	–	–	–	–	0.88	0.9	0.94	1.27	0.9	–
Nc1nc2cccc(-c3ccccc3)c2n1Cc1ccc(Cl)c(Cl)c1 [compound 3]	–	–	0.98	–	–	1.12	–	–	–	–	–	–	–	–	0.94	0.99	0.95	1.03	1.01	–
NCCOCCOCC(=O)Nc1nc2ncc(CNc3ccc(C(=O)NC(CCC(=O)O)C(=O)O)cc3)nc2c(=O)[nH]1 (stereo not shown) [compound 6]	0.89	0.99	1.03	1.01	0.99	1.09	–	–	–	–	–	–	–	–	–	–	–	–	–	0.93
NCCCNc1ccc(C(=O)NC(CCC(=O)O)C(=O)O)cc1 (stereo not shown) [compound 7]	1.63	1.07	0.99	0.9	0.94	1.04	1.04	–	–	–	–	–	–	–	–	–	–	–	–	–
